Species on record: Rattus norvegicus
Assay: DrugMatrix - Regimen: Daily Repeat
Format: toxicity, organism-based, Sprague-Dawley
Set-up: regimen Daily Repeat, gender Male, age 6-8 weeks
Details: in vivo, po, route oral GAVAGE, vehicle 100 % SALINE; for ABSOLUTE BASOPHIL / ABSOLUTE EOSINOPHIL / ABSOLUTE LYMPHOCYTE / ABSOLUTE MONOCYTE / ABSOLUTE SEGMENTED NEUTROPHIL / BASOPHIL / EOSINOPHIL / ERYTHROCYTE COUNT / HEMATOCRIT / HEMOGLOBIN / LEUKOCYTE COUNT / LYMPHOCYTE / MEAN CORPUSCULAR HEMOGLOBIN / MEAN CORPUSCULAR HEMOGLOBIN CONCENTRATION / MEAN CORPUSCULAR VOLUME / MONOCYTE / NEUTROPHIL / NUCLEATED RED BLOOD CELLS / PLATELET COUNT: tissue Blood; for ALANINE AMINOTRANSFERASE / ALBUMIN / ALKALINE PHOSPHATASE / ASPARTATE AMINOTRANSFERASE / BLOOD UREA NITROGEN / CARBON DIOXIDE / CHLORIDE / CHOLESTEROL / CREATINE PHOSPHOKINASE / CREATININE / GLUCOSE / LACTATE DEHYDROGENASE / LIPASE / PHOSPHORUS / POTASSIUM / SODIUM / TOTAL BILIRUBIN / TOTAL PROTEIN / URIC ACID: tissue Plasma
[1] = 0 mg/kg, 72 h, dose level Control, time 3 day
[2] = 0 mg/kg, 120 h, dose level Control, time 5 day
[3] = 17.5 mg/kg, 72 h, dose level Low, time 3 day
[4] = 17.5 mg/kg, 120 h, dose level Low, time 5 day

NC(=O)C[S+]([O-])C(c1ccccc1)c1ccccc1 (configuration not stated) [MODAFINIL]
ABSOLUTE BASOPHIL [1]: 0 CELLS/uL
ABSOLUTE EOSINOPHIL [1]: 37 CELLS/uL
ABSOLUTE LYMPHOCYTE [1]: 12359.33 CELLS/uL
ABSOLUTE MONOCYTE [1]: 122.67 CELLS/uL
ABSOLUTE SEGMENTED NEUTROPHIL [1]: 847.67 CELLS/uL
BASOPHIL [1]: 0%
EOSINOPHIL [1]: 0.33%
ERYTHROCYTE COUNT [1]: 5.75 x10E6/uL
HEMATOCRIT [1]: 36.08%
HEMOGLOBIN [1]: 14.07 G/DL
LEUKOCYTE COUNT [1]: 13.37 x10E3/uL
LYMPHOCYTE [1]: 92.5%
MEAN CORPUSCULAR HEMOGLOBIN [1]: 24.47 pg
MEAN CORPUSCULAR HEMOGLOBIN CONCENTRATION [1]: 38.98 G/DL
MEAN CORPUSCULAR VOLUME [1]: 62.78 fL
MONOCYTE [1]: 1%
NEUTROPHIL [1]: 6.17%
NUCLEATED RED BLOOD CELLS [1]: 0.17 /100WBC
PLATELET COUNT [1]: 1202.17 x10E3/uL
ALANINE AMINOTRANSFERASE [1]: 50.67 u/L
ALBUMIN [1]: 4.13 G/DL
ALKALINE PHOSPHATASE [1]: 356.33 u/L
ASPARTATE AMINOTRANSFERASE [1]: 78.17 u/L
BLOOD UREA NITROGEN [1]: 14.17 mg/dL
CARBON DIOXIDE [1]: 31.33 mmol/L
CHLORIDE [1]: 98.5 MEQ/L
CHOLESTEROL [1]: 76.5 mg/dL
CREATINE PHOSPHOKINASE [1]: 248.33 u/L
CREATININE [1]: 0.2 mg/dL
GLUCOSE [1]: 144 mg/dL
LACTATE DEHYDROGENASE [1]: 107 u/L
LIPASE [1]: 9.83 u/L
PHOSPHORUS [1]: 12.8 mg/dL
POTASSIUM [1]: 6.75 MEQ/L
SODIUM [1]: 142 MEQ/L
TOTAL BILIRUBIN [1]: 0.18 mg/dL
TOTAL PROTEIN [1]: 5.98 G/DL
URIC ACID [1]: 1.42 mg/dL
ABSOLUTE BASOPHIL [2]: 0 CELLS/uL
ABSOLUTE EOSINOPHIL [2]: 0 CELLS/uL
ABSOLUTE LYMPHOCYTE [2]: 8681.17 CELLS/uL
ABSOLUTE MONOCYTE [2]: 79.83 CELLS/uL
ABSOLUTE SEGMENTED NEUTROPHIL [2]: 689 CELLS/uL
BASOPHIL [2]: 0%
EOSINOPHIL [2]: 0%
ERYTHROCYTE COUNT [2]: 5.49 x10E6/uL
HEMATOCRIT [2]: 33.55%
HEMOGLOBIN [2]: 13.1 G/DL
LEUKOCYTE COUNT [2]: 9.45 x10E3/uL
LYMPHOCYTE [2]: 92.33%
MEAN CORPUSCULAR HEMOGLOBIN [2]: 23.92 pg
MEAN CORPUSCULAR HEMOGLOBIN CONCENTRATION [2]: 39.07 G/DL
MEAN CORPUSCULAR VOLUME [2]: 61.22 fL
MONOCYTE [2]: 0.67%
NEUTROPHIL [2]: 7%
NUCLEATED RED BLOOD CELLS [2]: 0.17 /100WBC
PLATELET COUNT [2]: 1001.17 x10E3/uL
ALANINE AMINOTRANSFERASE [2]: 49.33 u/L
ALBUMIN [2]: 4.07 G/DL
ALKALINE PHOSPHATASE [2]: 300.33 u/L
ASPARTATE AMINOTRANSFERASE [2]: 83.5 u/L
BLOOD UREA NITROGEN [2]: 16 mg/dL
CARBON DIOXIDE [2]: 29.67 mmol/L
CHLORIDE [2]: 100.5 MEQ/L
CHOLESTEROL [2]: 74.33 mg/dL
CREATINE PHOSPHOKINASE [2]: 489.67 u/L
CREATININE [2]: 0.35 mg/dL
GLUCOSE [2]: 151 mg/dL
LACTATE DEHYDROGENASE [2]: 133.67 u/L
LIPASE [2]: 11.17 u/L
PHOSPHORUS [2]: 10.88 mg/dL
POTASSIUM [2]: 5.5 MEQ/L
SODIUM [2]: 145.7 MEQ/L
TOTAL BILIRUBIN [2]: 0.2 mg/dL
TOTAL PROTEIN [2]: 6.05 G/DL
URIC ACID [2]: 0.68 mg/dL
ABSOLUTE BASOPHIL [3]: 0 CELLS/uL
ABSOLUTE EOSINOPHIL [3]: 0 CELLS/uL
ABSOLUTE LYMPHOCYTE [3]: 8269.33 CELLS/uL
ABSOLUTE MONOCYTE [3]: 22 CELLS/uL
ABSOLUTE SEGMENTED NEUTROPHIL [3]: 608.67 CELLS/uL
BASOPHIL [3]: 0%
EOSINOPHIL [3]: 0%
ERYTHROCYTE COUNT [3]: 5.35 x10E6/uL
HEMATOCRIT [3]: 32.93%
HEMOGLOBIN [3]: 12.87 G/DL
LEUKOCYTE COUNT [3]: 8.9 x10E3/uL
LYMPHOCYTE [3]: 93%
MEAN CORPUSCULAR HEMOGLOBIN [3]: 24.07 pg
MEAN CORPUSCULAR HEMOGLOBIN CONCENTRATION [3]: 39.03 G/DL
MEAN CORPUSCULAR VOLUME [3]: 61.67 fL
MONOCYTE [3]: 0.33%
NEUTROPHIL [3]: 6.67%
NUCLEATED RED BLOOD CELLS [3]: 0 /100WBC
PLATELET COUNT [3]: 1018.67 x10E3/uL
ALANINE AMINOTRANSFERASE [3]: 51.33 u/L
ALBUMIN [3]: 4.2 G/DL
ALKALINE PHOSPHATASE [3]: 290.33 u/L
ASPARTATE AMINOTRANSFERASE [3]: 79.67 u/L
BLOOD UREA NITROGEN [3]: 14 mg/dL
CARBON DIOXIDE [3]: 27.67 mmol/L
CHLORIDE [3]: 100.33 MEQ/L
CHOLESTEROL [3]: 66 mg/dL
CREATINE PHOSPHOKINASE [3]: 304.67 u/L
CREATININE [3]: 0.22 mg/dL
GLUCOSE [3]: 157.67 mg/dL
LACTATE DEHYDROGENASE [3]: 92.67 u/L
LIPASE [3]: 11 u/L
PHOSPHORUS [3]: 11.77 mg/dL
POTASSIUM [3]: 5.21 MEQ/L
SODIUM [3]: 144.33 MEQ/L
TOTAL BILIRUBIN [3]: 0.17 mg/dL
TOTAL PROTEIN [3]: 5.93 G/DL
URIC ACID [3]: 0.7 mg/dL
ABSOLUTE BASOPHIL [4]: 0 CELLS/uL
ABSOLUTE EOSINOPHIL [4]: 0 CELLS/uL
ABSOLUTE LYMPHOCYTE [4]: 7020.33 CELLS/uL
ABSOLUTE MONOCYTE [4]: 0 CELLS/uL
ABSOLUTE SEGMENTED NEUTROPHIL [4]: 813 CELLS/uL
BASOPHIL [4]: 0%
EOSINOPHIL [4]: 0%
ERYTHROCYTE COUNT [4]: 5.19 x10E6/uL
HEMATOCRIT [4]: 32.03%
HEMOGLOBIN [4]: 12.9 G/DL
LEUKOCYTE COUNT [4]: 7.83 x10E3/uL
LYMPHOCYTE [4]: 90%
MEAN CORPUSCULAR HEMOGLOBIN [4]: 24.93 pg
MEAN CORPUSCULAR HEMOGLOBIN CONCENTRATION [4]: 40.27 G/DL
MEAN CORPUSCULAR VOLUME [4]: 61.83 fL
MONOCYTE [4]: 0%
NEUTROPHIL [4]: 10%
NUCLEATED RED BLOOD CELLS [4]: 0 /100WBC
PLATELET COUNT [4]: 1105.67 x10E3/uL
ALANINE AMINOTRANSFERASE [4]: 54.33 u/L
ALBUMIN [4]: 4.27 G/DL
ALKALINE PHOSPHATASE [4]: 413 u/L
ASPARTATE AMINOTRANSFERASE [4]: 84 u/L
BLOOD UREA NITROGEN [4]: 11 mg/dL
CARBON DIOXIDE [4]: 33.67 mmol/L
CHLORIDE [4]: 98.33 MEQ/L
CHOLESTEROL [4]: 73 mg/dL
CREATINE PHOSPHOKINASE [4]: 441.67 u/L
CREATININE [4]: 0.39 mg/dL
GLUCOSE [4]: 133 mg/dL
LACTATE DEHYDROGENASE [4]: 119.33 u/L
LIPASE [4]: 10.67 u/L
PHOSPHORUS [4]: 10.57 mg/dL
POTASSIUM [4]: 6.11 MEQ/L
SODIUM [4]: 143.73 MEQ/L
TOTAL BILIRUBIN [4]: 0.13 mg/dL
TOTAL PROTEIN [4]: 6.13 G/DL
URIC ACID [4]: 0.7 mg/dL

Reference: ChEMBL document CHEMBL3885881, “DrugMatrix”
